Here are results for one compound from patent US20180228799A1, “Treatment for Neurological and Mental Disorders” (PSYCHOGENICS, INC., priority 2008, published 2018).

The structures appear in SMILES notation.

This test deals with rats. The experiment in a line: Radial arm maze, scopolamine-induced working memory deficit. It is filed as in vivo. The note with it: scopolamine 0.5 mg/kg IP, FIG. 2. The method, then:
Several mazes, such as the radial arm maze (RAM) have been adapted to assess working memory in rodents. The RAM consists of eight long runways radiating out in a circle from a central compartment. In the RAM rats learn to retrieve food rewards from all or a sub-set of the arms. Working memory is assessed by measuring entries into previously baited arms within a given trial. […] Hippocampal lesions produce deficits both in adults and in the neonatal hippocampal lesion model of schizophrenia.
For training, food deprived rats were placed in an enclosed cylinder in the center of the maze for 20 s, prior to being allowed to explore the maze by removing the cylinder. Each radial arm is baited with a food reward. Animals were given a maximum of 5 minutes to retrieve all food rewards. This training continued once daily for three weeks until animals met the performance criteria for successful acquisition of the task.
Four parameters were recorded to assess the performance of the rat: (1) the number of errors, which is defined as entering an arm that had already been entered, (2) the number of consecutive entries into un-visited arms before the first error occurred (entries to repeat), (3) latency to complete the task, and (4) the total number of arm entries before all food in the eight arms is collected or the maximum session duration is reached. […]

As for `CN1[C@@H]2C[C@@H](OC(=O)[C@H](CO)c3ccccc3)C[C@H]1[C@@H]1O[C@@H]12` [scopolamine, reference compound], the “Entries to repeat in the radial arm maze compared to baseline” value was “decreased entries to repeat”.
